Laboratory results from DBAASP.
In brackets after ≈: the same amount, converted by molar mass. Several values for one entry are separate records, joined by “and”; a condition that tells them apart may be missing. Equal values may be shown once. One block for each compound: values may come before it.

Assays:
Assay in all cases: ≥ marks a high value that may be exact or a test limit, other limits are often not marked, values filed in µg/mL are converted to µM
[1] = test system: Micrococcus luteus ATCC 4698
[2] = test system: Candida parapsilosis CGMCC 2.3989
[3] = test system: Candida tropicalis CGMCC 2.1975
[4] = test system: Candida albicans CGMCC 2.2086
Candida albicans = test system: Candida albicans
[5] = test system: Salmonella enterica subsp. enterica serovar Pullorum ATCC 7913
[6] = test system: Staphylococcus aureus ATCC 43300
Escherichia coli K99 = test system: Escherichia coli K99
Escherichia coli K88 = test system: Escherichia coli K88
Escherichia coli UB1005 = test system: Escherichia coli UB1005
[7] = test system: Staphylococcus aureus ATCC 25923
[8] = test system: Pseudomonas aeruginosa ATCC 27853
[9] = test system: Staphylococcus epidermidis ATCC 12228
[10] = test system: Salmonella enterica subsp. enterica serovar Typhimurium C77-31
Escherichia coli 078 = test system: Escherichia coli 078
[11] = test system: Salmonella enterica subsp. enterica serovar Typhimurium ATCC 14028
[12] = test system: Legionella pneumophila Lens
Escherichia coli MG1655 = test system: Escherichia coli MG1655
[13] = test system: Klebsiella pneumoniae ATCC 700603
[14] = test system: Pseudomonas aeruginosa ATCC 10145
Staphylococcus xylosus = test system: Staphylococcus xylosus
[15] = test system: Escherichia coli DH5alpha

MIC [1]: 13 µM (≈ 14 µg/mL)
Compound: CC(C)C[C@@H]1NC(=O)[C@H](CCCN=C(N)N)NC(=O)[C@H](CCCCN)NC(=O)[C@H](Cc2c[nH]c3ccccc23)NC(=O)CNC(=O)CNC(=O)[C@@H](N)CSSC[C@@H](C(=O)O)NC(=O)[C@H](CCCN=C(N)N)NC1=O [CGGWKRLRC]

MIC [2]: ≥ 32 µM
MIC [3]: 8 µM (≈ 16.6 µg/mL)
MIC [4]: ≥ 32 µM
MIC (Candida albicans): 32 µM (≈ 66.5 µg/mL)
Compound: CC[C@H](C)[C@H](NC(=O)CNC(=O)[C@H](CCCCN)NC(=O)[C@H](Cc1ccccc1)NC(=O)[C@H](CC(C)C)NC(=O)[C@H](CC(C)C)NC(=O)[C@H](Cc1ccccc1)NC(=O)[C@H](CCCCN)NC(=O)CNC(=O)[C@@H](NC(=O)[C@@H](N)CCCCN)[C@@H](C)CC)C(=O)N[C@@H](CCCCN)C(=O)N[C@@H](CCCCN)C(=O)N[C@H](C(=O)NCC(=O)N[C@@H](CCCCN)C(=O)N[C@@H](Cc1ccccc1)C(=O)N[C@@H](CC(C)C)C(N)=O)[C@@H](C)CC [KIGKFLLFKGIKKIGKFL]

MIC [5]: 4 µM (≈ 5.83 µg/mL)
MIC [6]: 8 µM (≈ 11.7 µg/mL)
MIC (Escherichia coli K99): 2 µM (≈ 2.91 µg/mL)
MIC (Escherichia coli K88): 2 µM (≈ 2.91 µg/mL)
MIC (Escherichia coli UB1005): 2 µM (≈ 2.91 µg/mL)
MIC [7]: 8 µM (≈ 11.7 µg/mL)
MIC [8]: 8 µM (≈ 11.7 µg/mL)
MIC [9]: 2 µM (≈ 2.91 µg/mL)
MIC [2]: 4 µM (≈ 5.83 µg/mL)
MIC [10]: 4 µM (≈ 5.83 µg/mL)
MIC [3]: 4 µM (≈ 5.83 µg/mL)
MIC (Escherichia coli 078): 1.37 µM (≈ 2 µg/mL)
MIC [11]: 4 µM (≈ 5.83 µg/mL)
Compound: CC[C@H](C)[C@H](NC(=O)[C@H](CCCN=C(N)N)NC(=O)[C@H](C)NC(=O)[C@H](C)N)C(=O)N[C@H](C(=O)N[C@@H](CC(C)C)C(=O)N[C@@H](CCCN=C(N)N)C(=O)N[C@@H](Cc1c[nH]c2ccccc12)C(=O)N[C@@H](Cc1ccccc1)C(=O)N[C@@H](CCCN=C(N)N)C(=O)N[C@@H](CCCN=C(N)N)C(N)=O)[C@@H](C)CC [AARIILRWFRR]

MIC [2]: 16 µM (≈ 35.9 µg/mL)
MIC [3]: 8 µM (≈ 18 µg/mL)
MIC [4]: 8 µM (≈ 18 µg/mL)
MIC (Candida albicans): 8 µM and 5.66 µM
Compound: CC[C@H](C)[C@H](NC(=O)CNC(=O)[C@H](CCCN=C(N)N)NC(=O)[C@H](Cc1ccccc1)NC(=O)[C@H](CC(C)C)NC(=O)[C@H](CC(C)C)NC(=O)[C@H](Cc1ccccc1)NC(=O)[C@H](CCCN=C(N)N)NC(=O)CNC(=O)[C@@H](NC(=O)[C@@H](N)CCCN=C(N)N)[C@@H](C)CC)C(=O)N[C@@H](CCCN=C(N)N)C(=O)N[C@@H](CCCN=C(N)N)C(=O)N[C@H](C(=O)NCC(=O)N[C@@H](CCCN=C(N)N)C(=O)N[C@@H](Cc1ccccc1)C(=O)N[C@@H](CC(C)C)C(N)=O)[C@@H](C)CC [RIGRFLLFRGIRRIGRFL]

Compound: CC[C@H](C)[C@H](NC(=O)CNC(=O)[C@H](CCCCN)NC(=O)[C@@H](NC(=O)[C@H](CC(C)C)NC(=O)[C@H](CC(C)C)NC(=O)[C@@H](NC(=O)[C@H](CCCCN)NC(=O)CNC(=O)[C@@H](NC(=O)[C@@H](N)CCCCN)[C@@H](C)CC)C(C)C)C(C)C)C(=O)N[C@@H](CCCCN)C(=O)N[C@@H](CCCCN)C(=O)N[C@H](C(=O)NCC(=O)N[C@@H](CCCCN)C(=O)N[C@H](C(=O)N[C@@H](CC(C)C)C(N)=O)C(C)C)[C@@H](C)CC [KIGKVLLVKGIKKIGKVL]
MIC [2]: ≥ 32 µM
MIC [3]: 16 µM (≈ 30.9 µg/mL)
MIC [4]: ≥ 32 µM
MIC (Candida albicans): > 64 µM and 32 µM

MIC [12]: 3.7 µM (≈ 9.21 µg/mL)
Compound: CC[C@H](C)[C@H](NC(=O)[C@H](CC(C)C)NC(=O)[C@H](CC(=O)O)NC(=O)[C@@H](NC(=O)[C@@H](NC(=O)[C@H](Cc1ccccc1)NC(=O)[C@H](CCC(N)=O)NC(=O)[C@@H](N)CCSC)[C@@H](C)CC)[C@@H](C)O)C(=O)NCC(=O)N[C@@H](CCCCN)C(=O)N[C@@H](C)C(=O)N[C@H](C(=O)N[C@@H](CC(=O)O)C(=O)N[C@@H](Cc1ccccc1)C(=O)N[C@@H](Cc1ccccc1)C(=O)N[C@@H](CCCCN)C(=O)NCC(=O)N[C@@H](CC(C)C)C(=O)N[C@@H](Cc1ccccc1)C(=O)NCC(=O)N[C@@H](CC(N)=O)C(=O)N[C@@H](CCCCN)C(=O)O)C(C)C [MQFITDLIGKAVDFFKGLFGNK]

MIC (Escherichia coli MG1655): 9.3 µM (≈ 24.4 µg/mL)
MIC [13]: > 9.3 µM
MIC [7]: 2.32 µM (≈ 6.09 µg/mL)
MIC [14]: 0.29 µM (≈ 0.761 µg/mL)
Compound: CC(C)C[C@H](NC(=O)[C@H](Cc1ccc(O)cc1)NC(=O)[C@H](Cc1cnc[nH]1)NC(=O)[C@H](CCCCN)NC(=O)[C@H](CC(C)C)NC(=O)[C@H](C)NC(=O)[C@H](CC(C)C)NC(=O)[C@H](CCCCN)NC(=O)CNC(=O)[C@@H](NC(=O)[C@@H](NC(=O)[C@H](CCCCN)NC(=O)[C@@H](NC(=O)[C@H](CCC(=O)O)NC(=O)[C@H](C)NC(=O)[C@H](CCCCN)NC(=O)[C@H](CCCCN)NC(=O)[C@H](CC(C)C)NC(=O)[C@H](CC(C)C)NC(=O)[C@@H](NC(=O)[C@H](CCCCN)NC(=O)[C@H](Cc1c[nH]c2ccccc12)NC(=O)CN)[C@@H](C)O)C(C)C)[C@@H](C)O)C(C)C)C(=O)O [GWKTLLKKAEVKTVGKLALKHYL]

MIC [12]: 1.27 µM (≈ 3.12 µg/mL)
Compound: CC[C@H](C)[C@H](NC(=O)[C@H](CC(C)C)NC(=O)CNC(=O)[C@H](CCCCN)NC(=O)[C@@H](NC(=O)[C@@H](NC(=O)[C@H](CCC(=O)O)NC(=O)[C@@H](NC(=O)[C@@H](NC(=O)[C@H](CCCCN)NC(=O)[C@H](C)NC(=O)[C@@H](NC(=O)[C@@H](NC(=O)[C@H](CC(=O)O)NC(=O)[C@H](C)NC(=O)[C@@H](N)CCSC)C(C)C)[C@@H](C)CC)[C@@H](C)CC)C(C)C)[C@@H](C)CC)C(C)C)C(=O)N[C@@H](CC(=O)O)C(=O)N[C@@H](CCC(N)=O)C(=O)N[C@@H](Cc1ccccc1)C(=O)N[C@H](C(=O)N[C@@H](CCC(N)=O)C(=O)N[C@@H](CCCCN)C(=O)O)[C@@H](C)O [MADVIAKIVEIVKGLIDQFTQK]

MIC [12]: 0.94 µM (≈ 2.32 µg/mL)
Compound: CC[C@H](C)[C@H](NC(=O)[C@H](CC(C)C)NC(=O)[C@H](CCCCN)NC(=O)[C@H](CCCCN)NC(=O)[C@@H](NC(=O)[C@@H](NC(=O)[C@H](CCC(=O)O)NC(=O)[C@@H](NC(=O)[C@@H](NC(=O)[C@H](CCCCN)NC(=O)[C@H](C)NC(=O)[C@@H](NC(=O)[C@@H](NC(=O)CNC(=O)[C@H](C)NC(=O)[C@@H](N)CCSC)C(C)C)[C@@H](C)CC)[C@@H](C)CC)C(C)C)[C@@H](C)CC)C(C)C)C(=O)N[C@@H](CC(=O)O)C(=O)N[C@@H](CCC(N)=O)C(=O)N[C@@H](Cc1ccccc1)C(=O)N[C@H](C(=O)N[C@@H](CCC(N)=O)C(=O)N[C@@H](CCCCN)C(=O)O)[C@@H](C)O [MAGVIAKIVEIVKKLIDQFTQK]

MIC [12]: 5.08 µM (≈ 12.5 µg/mL)
Compound: CC[C@H](C)[C@H](NC(=O)[C@H](C)NC(=O)[C@H](CCCCN)NC(=O)[C@@H](NC(=O)[C@@H](NC(=O)[C@H](CCC(=O)O)NC(=O)[C@@H](NC(=O)[C@@H](NC(=O)[C@H](CCCCN)NC(=O)CNC(=O)[C@H](CC(C)C)NC(=O)[C@@H](NC(=O)[C@H](CC(=O)O)NC(=O)[C@H](CCC(N)=O)NC(=O)[C@H](Cc1ccccc1)NC(=O)[C@@H](NC(=O)[C@H](CCC(N)=O)NC(=O)[C@@H](N)CCSC)[C@@H](C)O)[C@@H](C)CC)C(C)C)[C@@H](C)CC)C(C)C)[C@@H](C)CC)C(=O)N[C@H](C(=O)N[C@@H](CC(=O)O)C(=O)N[C@@H](C)C(=O)N[C@@H](CCCCN)C(=O)O)C(C)C [MQTFQDILGKVIEVIKAIVDAK]

MIC (Staphylococcus xylosus): 0.5 µM (≈ 0.917 µg/mL)
MIC [15]: 8 µM (≈ 14.7 µg/mL)
Compound: CC[C@H](C)[C@H](NC(=O)[C@H](CC(C)C)NC(=O)[C@@H](NC(=O)[C@H](CC(C)C)NC(=O)[C@@H](NC(=O)[C@H](CC(C)C)NC(=O)[C@H](CCCCN)NC(=O)[C@H](CCCN=C(N)N)NC(=O)[C@H](CCCCN)NC(=O)[C@@H](N)CCCN=C(N)N)[C@@H](C)CC)[C@@H](C)CC)C(=O)N[C@@H](CCCCN)C(=O)N[C@@H](CCCN=C(N)N)C(=O)N[C@@H](CCCCN)C(=O)N[C@@H](CCCN=C(N)N)C(=O)O [RKRKLILILIKRKR]
